Patent US6566087B1, “Phosphodiesterase 8A” (ICOS Corporation, priority 1997, dated 2003)
Read-outs that look alike come from different tables or passages of the source.

Tests used:
Format in all cases: biochemical
[1] = system: known human PDEs (Non-selective); experiment: IC50 of non-selective inhibitor for known PDEs; settings: read-out: IC50 for Target Family
PDE8A [2] = target: T1, PDE8A (Homo sapiens, UniProt Q9Y233); experiment: Inhibition of recombinant PDE8A activity (32P-phosphate release from 32P-cAMP); settings: for Fold Difference: IC50 for PDE8 versus IC50 for target family; for IC50: read-out: IC50 for PDE8
T1 construct: made in house; host or cells: yeast strain BJ2-54 lacking endogenous PDE activity; plasmid W48-2ADH2 (ATCC 98552); crude yeast extract
Procedure: (§1) Frozen cell pellets (0.06 ml) were thawed and suspended in 0.2 ml lysis buffer containing 100 mM MOPS, pH 8.0, 200 mM NaCl, 2 μM […], 2 mM dithiothreitol, and 10 μg/ml each protease inhibitors pepstatin, leupeptin, and aprotinin. Approximately 0.2 ml of 0.5 mm glass beads were added to the cells which were then lysed with four 30-second cycles of vortexing. The lysate was aspirated and the beads were washed twice with 0.3 ml lysis buffer. The lysate was combined with the washes to generate the yeast extract. In some experiments the lysate was fractionated by centrifugation at 105,000×g for thirty minutes.
(§2) PDE activity was assayed by detection of ^32P-phosphate released from ^32P-cAMP or ^32P-cGMP as described previously [Loughney et al., J. Biol. Chem. 271:796-806 (1996)]. The yeast extract was diluted in 0.5×lysis buffer also containing 0.5 mg/ml bovine serum albumin. Twenty μl of the yeast extract, or diluted yeast extract, was assayed in a 100 μl reaction volume which included an additional 50 mM Tris-HCl (pH 8.0), 5 mM MgCl2 1 μM Zn SO2, and 0.1 mg/ml bovine serum albumin. Protein concentration was assayed by the method of Bradford.

PDE3 = experiment: IC50 of isozyme-selective inhibitor for its target family PDE3; settings: Target PDE Family PDE3
PDE5 = PDE5 (Homo sapiens, UniProt O76074); experiment: IC50 of isozyme-selective inhibitor for its target family PDE5; settings: Target PDE Family PDE5
PDE2 = PDE2 (Homo sapiens, UniProt O00408); experiment: IC50 of isozyme-selective inhibitor for its target family PDE2; settings: Target PDE Family PDE2
PDE8A [3] = target: T1, PDE8A; experiment: Kinetic analysis of PDE8A hydrolysis of cyclic nucleotide substrates in yeast extract; settings: estimated, substrate of PDE8A, yeast lysate
Procedure: as §1
as §2, with “The” for “PDE activity was assayed by detection of ^32P-phosphate released from ^32P-cAMP or ^32P-cGMP as described previously [Loughney et al., J. Biol. Chem. 271:796-806 (1996)]. The”

[4] = cAMP concentration of 60 nM, low Km form only, yeast extract

T1 sequence (Q9Y233 290-1055 limits assumed): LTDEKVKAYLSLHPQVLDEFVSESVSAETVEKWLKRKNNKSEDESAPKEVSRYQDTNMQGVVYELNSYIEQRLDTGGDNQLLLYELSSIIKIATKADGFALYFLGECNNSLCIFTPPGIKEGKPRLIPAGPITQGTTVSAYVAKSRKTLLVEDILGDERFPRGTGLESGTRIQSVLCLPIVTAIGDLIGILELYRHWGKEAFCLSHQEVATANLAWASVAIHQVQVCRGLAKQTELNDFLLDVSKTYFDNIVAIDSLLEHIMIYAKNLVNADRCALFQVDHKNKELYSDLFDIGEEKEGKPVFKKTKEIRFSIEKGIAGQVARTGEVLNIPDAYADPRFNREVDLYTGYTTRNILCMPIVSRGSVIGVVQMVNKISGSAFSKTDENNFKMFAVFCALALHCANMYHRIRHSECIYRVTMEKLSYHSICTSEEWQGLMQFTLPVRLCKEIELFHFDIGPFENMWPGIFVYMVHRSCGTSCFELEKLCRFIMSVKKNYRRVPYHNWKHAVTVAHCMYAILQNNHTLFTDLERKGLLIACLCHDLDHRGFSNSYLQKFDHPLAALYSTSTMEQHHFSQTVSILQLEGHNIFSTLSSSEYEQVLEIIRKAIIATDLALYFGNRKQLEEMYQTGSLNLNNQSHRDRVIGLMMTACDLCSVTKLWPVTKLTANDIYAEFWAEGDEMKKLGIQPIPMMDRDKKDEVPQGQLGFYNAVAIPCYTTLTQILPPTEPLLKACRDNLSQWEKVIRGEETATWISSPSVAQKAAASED
PDE2, sequence (O00408 whole entry): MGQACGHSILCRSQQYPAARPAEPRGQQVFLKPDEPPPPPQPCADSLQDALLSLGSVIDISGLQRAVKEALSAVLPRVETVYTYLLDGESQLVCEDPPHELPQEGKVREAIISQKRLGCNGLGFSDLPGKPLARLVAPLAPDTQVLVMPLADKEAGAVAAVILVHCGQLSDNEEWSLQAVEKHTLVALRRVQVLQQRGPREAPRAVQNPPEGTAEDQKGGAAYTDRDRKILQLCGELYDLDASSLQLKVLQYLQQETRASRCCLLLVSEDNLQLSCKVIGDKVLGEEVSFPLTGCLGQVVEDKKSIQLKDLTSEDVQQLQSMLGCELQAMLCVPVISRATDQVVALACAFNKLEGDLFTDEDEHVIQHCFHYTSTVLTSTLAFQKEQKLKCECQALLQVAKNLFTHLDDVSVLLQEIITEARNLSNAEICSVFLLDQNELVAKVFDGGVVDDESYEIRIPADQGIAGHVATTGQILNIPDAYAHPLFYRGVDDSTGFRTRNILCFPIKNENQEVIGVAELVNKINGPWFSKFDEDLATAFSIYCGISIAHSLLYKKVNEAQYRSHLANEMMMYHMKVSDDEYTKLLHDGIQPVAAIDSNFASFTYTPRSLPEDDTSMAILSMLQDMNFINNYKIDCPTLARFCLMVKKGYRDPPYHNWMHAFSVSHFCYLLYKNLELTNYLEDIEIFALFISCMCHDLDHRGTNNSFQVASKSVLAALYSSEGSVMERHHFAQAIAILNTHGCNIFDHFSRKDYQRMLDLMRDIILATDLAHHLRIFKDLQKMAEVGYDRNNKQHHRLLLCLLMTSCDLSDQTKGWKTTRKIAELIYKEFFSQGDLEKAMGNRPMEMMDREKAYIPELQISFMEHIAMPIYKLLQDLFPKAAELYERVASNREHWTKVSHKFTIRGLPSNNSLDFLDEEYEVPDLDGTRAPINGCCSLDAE

Structure (SMILES)	Fold Difference (PDE8A [2])	IC50 (PDE8A [2]; [4]) [µM]	IC50 (PDE8A [2]) [µM]	also measured
CC(C)Cn1c(=O)n(C)c(=O)c2[nH]cnc21 [IBMX, isomethyl butyl xanthine]	0.12-4.6	4.6	–	IC50 [1]: 1 to 40 µM
CN(C(=O)CCCOc1ccc2[nH]c(=O)ccc2c1)C1CCCCC1 [Cilostamide]	750	–	12	IC50 (PDE3): 0.02 µM
CCCOc1ccc(NS(C)(=O)=O)cc1-c1nc2c(c(C)nn2C)c(=O)[nH]1 [DMPPO]	66	1.1	–	IC50 (PDE5): 0.016 µM
CCCCCCC(C(C)O)n1cnc2c(N)ncnc21 (stereo not drawn) [EHNA, erythro-9-(2-hydroxy-3-nonyl)adenine]	31	–	65	IC50 (PDE2): 2 µM
Nc1nc2c(ncn2[C@@H]2O[C@@H]3COP(=O)(O)O[C@H]3[C@H]2O)c(=O)[nH]1 [cGMP]	–	–	–	Km (PDE8A [3]; read-out: Km, high Km form): 300 µM; Km (PDE8A [3]; read-out: Km, low Km form): 3 µM
